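1) Cells in 96-well plates. 2) Compound, 48 h, 5 concentrations. 3) Linear interpolation between surrounding doses. 4) Unreached endpoint = highest concentration. The concentration for full growth arrest is given as TGI.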
Assays:
Experiment in all cases: NCI anticancer screen, dose series, 48 h
[1] = test system: SW-620 colon
[2] = test system: A549 NSCLC
[3] = test system: EKVX NSCLC
[4] = test system: KM12 colon
[5] = test system: M14 melanoma
[6] = test system: NCI/ADR-RES ovarian
[7] = test system: CAKI-1 renal
[8] = test system: MALME-3M melanoma
[9] = test system: OVCAR-5 ovarian
[10] = test system: SNB-75 CNS
[11] = test system: COLO 205 colon
[12] = test system: RPMI-8226 leukemia
[13] = test system: HOP-62 NSCLC
[14] = test system: SNB-19 CNS
[15] = test system: T-47D breast
[16] = test system: HOP-92 NSCLC
[17] = test system: CCRF-CEM leukemia
[18] = test system: A498 renal
[19] = test system: U251 CNS
[20] = test system: OVCAR-3 ovarian
[21] = test system: NCI-H23 lung
[22] = test system: MOLT-4 leukemia
[23] = test system: SK-MEL-2 melanoma
[24] = test system: NCI-H226 lung
[25] = test system: BT-549 breast
[26] = test system: UACC-62 melanoma
[27] = test system: SK-OV-3 ovarian
[28] = test system: MDA-MB-435
[29] = test system: LOX IMVI melanoma
[30] = test system: DU-145 prostate
[31] = test system: OVCAR-8 ovarian
[32] = test system: HCT-116 colon
[33] = test system: UO-31 renal
[34] = test system: NCI-H522 lung
[35] = test system: SF-268 CNS
[36] = test system: SN12C renal
[37] = test system: MDA-MB-231 breast
[38] = test system: HCT-15 colon
[39] = test system: PC-3 prostate
[40] = test system: IGROV1 ovarian
[41] = test system: OVCAR-4 ovarian
[42] = test system: NCI-H460 lung
[43] = test system: SK-MEL-5 melanoma
[44] = test system: SF-295 CNS
[45] = test system: SF-539 CNS
[46] = test system: MDA-N
[47] = test system: UACC-257 melanoma
[48] = test system: SK-MEL-28 melanoma
[49] = test system: MCF7 breast
[50] = test system: HS 578T breast
[51] = test system: TK-10 renal
[52] = test system: HCC-2998 colon
[53] = test system: ACHN renal
[54] = test system: HT29 colon
[55] = test system: 786-0 renal
[56] = test system: SR leukemia
[57] = test system: K-562 leukemia
[58] = test system: HL-60(TB) leukemia

CN(C)N1C(=O)c2ccccc2NC1c1ccccc1 (stereo not given)
TGI [1]: > 100 µM | TGI [2]: > 100 µM | TGI [3]: > 100 µM | TGI [4]: > 100 µM | TGI [5]: > 100 µM | TGI [6]: > 100 µM | TGI [7]: > 100 µM | TGI [8]: > 100 µM | TGI [9]: > 100 µM | TGI [10]: > 100 µM | TGI [11]: > 100 µM | TGI [12]: > 100 µM | TGI [13]: > 100 µM | TGI [14]: > 100 µM | TGI [15]: > 100 µM | TGI [16]: > 100 µM | TGI [17]: > 100 µM | TGI [18]: > 100 µM | TGI [19]: > 100 µM | TGI [20]: > 100 µM | TGI [21]: > 100 µM | TGI [22]: > 100 µM | TGI [23]: > 100 µM | TGI [24]: > 100 µM | TGI [25]: > 100 µM | TGI [26]: > 100 µM | TGI [27]: > 100 µM | TGI [28]: > 100 µM | TGI [29]: > 100 µM | TGI [30]: > 100 µM | TGI [31]: > 100 µM | TGI [32]: > 100 µM | TGI [33]: > 100 µM | TGI [34]: > 100 µM | TGI [35]: > 100 µM | TGI [36]: > 100 µM | TGI [37]: > 100 µM | TGI [38]: > 100 µM | TGI [39]: > 100 µM | TGI [40]: > 100 µM | TGI [41]: > 100 µM | TGI [42]: > 100 µM | TGI [43]: > 100 µM | TGI [44]: > 100 µM | TGI [45]: > 100 µM | TGI [46]: > 100 µM | TGI [47]: > 100 µM | TGI [48]: > 100 µM | TGI [49]: > 100 µM | TGI [50]: > 100 µM | TGI [51]: > 100 µM | TGI [52]: > 100 µM | TGI [53]: > 100 µM | TGI [54]: > 100 µM | TGI [55]: > 100 µM

COc1cc(C2SCC(=O)N2c2ccc(-n3c(-c4ccccc4)nc4ccccc4c3=O)cc2)ccc1O (stereo not given)
TGI [1]: > 100 µM | TGI [2]: > 100 µM | TGI [3]: > 100 µM | TGI [4]: > 100 µM | TGI [5]: > 100 µM | TGI [6]: > 100 µM | TGI [7]: > 100 µM | TGI [8]: > 100 µM | TGI [9]: > 100 µM | TGI [56]: > 100 µM | TGI [11]: > 100 µM | TGI [12]: > 100 µM | TGI [13]: > 100 µM | TGI [14]: > 100 µM | TGI [15]: > 100 µM | TGI [16]: 68.9 µM | TGI [17]: > 100 µM | TGI [18]: > 100 µM | TGI [19]: > 100 µM | TGI [57]: > 100 µM | TGI [20]: > 100 µM | TGI [21]: > 100 µM | TGI [22]: > 100 µM | TGI [23]: > 100 µM | TGI [24]: > 100 µM | TGI [25]: > 100 µM | TGI [26]: > 100 µM | TGI [27]: > 100 µM | TGI [28]: > 100 µM | TGI [29]: > 100 µM | TGI [30]: > 100 µM | TGI [31]: > 100 µM | TGI [32]: > 100 µM | TGI [33]: 97.7 µM | TGI [34]: > 100 µM | TGI [35]: > 100 µM | TGI [58]: > 100 µM | TGI [37]: > 100 µM | TGI [38]: > 100 µM | TGI [39]: > 100 µM | TGI [41]: > 100 µM | TGI [42]: > 100 µM | TGI [43]: > 100 µM | TGI [44]: > 100 µM | TGI [45]: > 100 µM | TGI [46]: > 100 µM | TGI [47]: > 100 µM | TGI [48]: > 100 µM | TGI [49]: > 100 µM | TGI [50]: > 100 µM | TGI [51]: > 100 µM | TGI [52]: > 100 µM | TGI [53]: > 100 µM | TGI [54]: > 100 µM | TGI [55]: > 100 µM

From PubChem BioAssay (NCI)
